System: SARS-CoV-2 strain USA-WA1/2020
Experiment: microbe, parasite or virus in culture
Assay type: cell-based
Settings: HeLa-ACE2 cells, SARS-CoV-2 infection, 24 h; class symbols; read-out: EC50, uM (Hela)

| SMILES | EC50 |
| --- | --- |
| COc1cccc2[nH]c(C(=O)N[C@@H](CC(C)C)C(=O)N[C@@H](C[C@@H]3CCNC3=O)C(=O)COc3c(F)cccc3F)cc12 [Compound 2] | 0.5 to 1 µM |

Same assay, conditions: Severe acute respiratory syndrome coronavirus 2, HeLa-ACE2, 24 h, HeLa-ACE2 cells, SARS-CoV-2 infection, 24 h; class symbols; read-out: EC50, uM (Hela)

| SMILES | EC50 |
| --- | --- |
| O=C(N[C@@H](CC1CC1)C(=O)N[C@@H](C[C@@H]1CCNC1=O)C(=O)COC(F)(F)F)c1ncc(-c2ccccc2)[nH]1 [Compound 223, N-((S)-3-cyclopropyl-1-oxo-1-(((S)-3-oxo-1-((S)-2-oxopyrrolidin-3-yl)-4-(trifluoromethoxy)butan-2-yl)amino)propan-2-yl)-5-phenyl-1H-imidazole-2-carboxamide] | < 0.05 µM |
| CC(C)C[C@H](NC(=O)C(=O)Nc1ccccc1OC(F)(F)F)C(=O)N[C@@H](C[C@@H]1CCNC1=O)C(=O)COc1c(F)c(F)cc(F)c1F [Compound 113, N1-((S)-4-methyl-1-oxo-1-(((S)-3-oxo-1-((S)-2-oxopyrrolidin-3-yl)-4-(2,3,5,6-tetrafluorophenoxy)butan-2-yl)amino)pentan-2-yl)-N2-(2-(trifluoromethoxy)-phenyl)oxalamide] | < 0.05 µM |
| O=C1NCC[C@H]1C[C@H](NC(=O)[C@@H]1CC2(CC2)CN1C(=O)[C@H](O)CC1CC1)C(=O)COC(F)(F)F [Compound 392, (S)-5-((R)-3-cyclopropyl-2-hydroxypropanoyl)-N-((S)-3-oxo-1-((S)-2-oxopyrrolidin-3-yl)-4-(trifluoromethoxy)butan-2-yl)-5-azaspiro[2.4]heptane-6-carboxamide] | 0.05 to 0.2 µM |
| CC(C)C[C@H](NC(=O)[C@H](O)Cc1ccccc1)C(=O)N[C@@H](C[C@@H]1CCNC1=O)C(=O)COC(F)(F)F [Compound 207, (S)-2-((R)-2-hydroxy-3-phenylpropanamido)-4-methyl-N-((S)-3-oxo-1-((S)-2-oxopyrrolidin-3-yl)-4-(trifluoromethoxy)butan-2-yl)pentanamide] | < 0.05 µM |
| COC(OC)C(=O)N1CC2(CC2)C[C@H]1C(=O)N[C@@H](C[C@@H]1CCNC1=O)C(=O)COC(F)(F)F [Compound 340, (S)-5-(2,2-dimethoxyacetyl)-N—((S)-3-oxo-1-((S)-2-oxopyrrolidin-3-yl)-4-(trifluoromethoxy)butan-2-yl)-5-azaspiro[2.4]heptane-6-carboxamide] | 0.2 to 0.5 µM |
| CC(C)(F)c1cc(C(=O)N2C[C@H]3[C@@H]([C@H]2C(=O)N[C@@H](C[C@@H]2CCNC2=O)C(=O)COc2c(F)c(F)cc(F)c2F)C3(C)C)no1 [Compound 284, (1R,2S,5S)-3-(5-(2-fluoropropan-2-yl)isoxazole-3-carbonyl)-6,6-dimethyl-N-((S)-3-oxo-1-((S)-2-oxopyrrolidin-3-yl)-4-(2,3,5,6-tetrafluorophenoxy)butan-2-yl)-3-azabicyclo-[3.1.0]hexane-2-carboxamide] | 0.2 to 0.5 µM |
| Cc1cccc(F)c1NC(=O)C(=O)N[C@@H](CC(C)C)C(=O)N[C@@H](C[C@@H]1CCNC1=O)C(=O)COc1c(F)c(F)cc(F)c1F [Compound 82, N1-(2-fluoro-6-methylphenyl)-N2-((S)-4-methyl-1-oxo-1-(((S)-3-oxo-1-((S)-2-oxopyrrolidin-3-yl)-4-(2,3,5,6-tetrafluorophenoxy)butan-2-yl)amino)pentan-2-yl)oxalamide] | < 0.05 µM |
| CC1(C)[C@@H]2[C@@H](C(=O)N[C@@H](C[C@@H]3CCNC3=O)C(=O)COC(F)(F)F)N(C(=O)C34CC(C(F)F)(CO3)C4)C[C@@H]21 [Compound 322, (1R,2S,5S)-3-(4-(difluoromethyl)-2-oxabicyclo[2.1.1]-hexane-1-carbonyl)-6,6-dimethyl-N-((S)-3-oxo-1-((S)-2-oxopyrrolidin-3-yl)-4-(trifluoromethoxy)butan-2-yl)-3-azabicyclo-[3.1.0]hexane-2-carboxamide] | 0.05 to 0.2 µM |
| CC(C)C[C@H](NC(=O)C(=O)NC1CC2(COC2)C1)C(=O)N[C@@H](C[C@@H]1CCNC1=O)C(=O)COC(F)(F)F [Compound 240, N1-((S)-4-methyl-1-oxo-1-(((S)-3-oxo-1-((S)-2-oxopyrrolidin-3-yl)-4-(trifluoromethoxy)butan-2-yl)amino)pentan-2-yl)-N2-(2-oxaspiro[3.3]heptan-6-yl)oxalamide] | 0.05 to 0.2 µM |
| CC(C)C[C@H](NC(=O)[C@H](O)C(C)(C)C)C(=O)N[C@@H](C[C@@H]1CCNC1=O)C(=O)COC(F)(F)F [Compound 341, (S)-2-((R)-2-hydroxy-3,3-dimethylbutanamido)-4-methyl-N-((S)-3-oxo-1-((S)-2-oxopyrrolidin-3-yl)-4-(trifluoromethoxy)butan-2-yl)pentanamide] | 0.05 to 0.2 µM |
| CC(C)C[C@H](NC(=O)C1CCN(C(=O)C2CCCC2)CC1)C(=O)N[C@@H](C[C@@H]1CCNC1=O)C(=O)COc1c(F)c(F)cc(F)c1F [Compound 25, l-(cyclopentane-carbonyl)-N-((S)-4-methyl-1-oxo-1-(((S)-3-oxo-1-((S)-2-oxopyrrolidin-3-yl)-4-(2,3,5,6-tetrafluorophenoxy)butan-2-yl)amino)pentan-2-yl)piperidine-4-carboxamide] | 0.5 to 1 µM |

Same assay, conditions: Severe acute respiratory syndrome coronavirus 2, HeLa-ACE2, 24 h, HeLa-ACE2 cells, SARS-CoV-2 infection, 24 h; given as bound; read-out: EC50, uM (Hela)

| SMILES | EC50 |
| --- | --- |
| CC(C)(C)NC(=O)C(=O)N1C[C@H]2C[C@]1(C(=O)N[C@@H](C[C@@H]1CCNC1=O)C(=O)COC(F)(F)F)C2 [Compound 560, (1s,4R)-2-(2-(tert-butylamino)-2-oxoacetyl)-N-((S)-3-oxo-1-((S)-2-oxopyrrolidin-3-yl)-4-(trifluoromethoxy)butan-2-yl)-2-azabicyclo-[2.1.1]hexane-1-carboxamide] | > 1 µM |

Same assay, conditions: Severe acute respiratory syndrome coronavirus 2, HeLa-ACE2, 24 h, HeLa-ACE2 cells, SARS-CoV-2 infection, 24 h; read-out: EC50, uM (Hela)

| SMILES | EC50 |
| --- | --- |
| O=C(Nc1cc(F)ccc1F)C(=O)N1CC2(CC2)C[C@H]1C(=O)N[C@@H](C[C@@H]1CCNC1=O)C(=O)COC(F)(F)F [Compound 602, (S)-5-(2-((2,5-difluorophenyl)amino)-2-oxoacetyl)-N-((S)-3-oxo-1-((S)-2-oxopyrrolidin-3-yl)-4-(trifluoromethoxy)butan-2-yl)-5-azaspiro[2.4]heptane-6-carboxamide] | < 0.05 µM |
| O=C(Nc1ccccc1Cl)C(=O)N1CC2(CC2)C[C@H]1C(=O)N[C@@H](C[C@@H]1CCNC1=O)C(=O)COC(F)(F)F [Compound 606, (S)-5-(2-((2-chlorophenyl)amino)-2-oxoacetyl)-N-((S)-3-oxo-1-((S)-2-oxopyrrolidin-3-yl)-4-(trifluoromethoxy)butan-2-yl)-5-azaspiro[2.4]heptane-6-carboxamide] | < 0.05 µM |
| O=C1NCC[C@H]1C[C@H](NC(=O)[C@@H]1CC2(CC2)CN1C(=O)CNCC(F)(F)F)C(=O)COC(F)(F)F [Compound 672, (S)-N-((S)-3-oxo-1-((S)-2-oxopyrrolidin-3-yl)-4-(trifluoromethoxy)butan-2-yl)-5-((2,2,2-trifluoroethyl)glycyl)-5-azaspiro[2.4]heptane-6-carboxamide] | 0.05 to 0.2 µM |
| CC(C)CCC(=O)N1CC2(CC2)C[C@H]1C(=O)N[C@@H](C[C@@H]1CCNC1=O)C(=O)COC(F)(F)F [Compound 429, (S)-5-(4-methylpentanoyl)-N—((S)-3-oxo-1-((S)-2-oxopyrrolidin-3-yl)-4-(trifluoromethoxy)butan-2-yl)-5-azaspiro[2.4]heptane-6-carboxamide] | < 0.05 µM |

Same assay, conditions: Severe acute respiratory syndrome coronavirus 2, HeLa-ACE2, 24 h; read-out: EC50, uM (Hela)

| SMILES | EC50 |
| --- | --- |
| O=C(Cc1ccccc1)O[C@@H](C(=O)N1C[C@@H]2CCC[C@@H]2[C@H]1C(=O)N[C@@H](C[C@@H]1CCNC1=O)C(=O)COC(F)(F)F)c1ccccc1F [Compound 622, (R)-1-(2-fluorophenyl)-2-oxo-2-((1S,3aR,6aS)-1-(((S)-3-oxo-1-((S)-2-oxopyrrolidin-3-yl)-4-(trifluoromethoxy)butan-2-yl)carbamoyl)hexahydrocyclopenta[c]-pyrrol-2(1H)-yl)ethyl 2-phenylacetate] | 0.05 to 0.2 µM |
